Test results reported in ChEMBL document CHEMBL1154180, “Pyrazole-based arylalkyne cathepsin S inhibitors. Part II: optimization of cellular potency” (Bioorg Med Chem Lett, 2009).

Tests used:
[1] = biological target: T1, Cathepsin S (Homo sapiens, UniProt P25774); assay: Inhibition of human recombinant cathepsin S expressed in baculovirus by FRET assay
[2] = biological target: T1, Cathepsin S; assay: Inhibition of cathepsin S in human JY cells assessed as invariant chain li degradation by Western blotting; format: cell-based

T1 sequence (P25774 whole entry): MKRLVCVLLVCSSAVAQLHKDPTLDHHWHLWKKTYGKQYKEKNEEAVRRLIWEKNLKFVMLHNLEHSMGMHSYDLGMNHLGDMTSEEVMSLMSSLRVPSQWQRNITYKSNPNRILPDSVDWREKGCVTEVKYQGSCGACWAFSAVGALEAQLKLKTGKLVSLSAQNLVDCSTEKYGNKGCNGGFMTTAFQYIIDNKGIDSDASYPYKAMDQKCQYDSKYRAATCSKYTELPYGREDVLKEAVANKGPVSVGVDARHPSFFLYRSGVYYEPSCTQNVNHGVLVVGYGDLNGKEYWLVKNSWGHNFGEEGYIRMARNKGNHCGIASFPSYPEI

| Structure (SMILES) | IC50 [1] | IC50 [2] |
| --- | --- | --- |
| CNCc1ccc(C#Cc2cc(-c3nn(CCCN4CCOCC4)c4c3CN(S(C)(=O)=O)CC4)ccc2Cl)cc1 | 1300 nM | > 10000 nM |
| CS(=O)(=O)N1CCc2c(c(-c3ccc(Cl)c(C#Cc4ccc(CNS(=O)(=O)c5ccccc5)cc4)c3)nn2CCCN2CCOCC2)C1 | 160 nM | > 10000 nM |
| CS(=O)(=O)N1CCc2c(c(-c3ccc(Cl)c(C#Cc4ccc(CNC(=O)c5ccccc5)cc4)c3)nn2CCCN2CCOCC2)C1 |  | > 10000 nM |
| CS(=O)(=O)N1CCc2c(c(-c3ccc(Cl)c(C#Cc4ccc(CNCc5ccc(Cl)c(Cl)c5)cc4)c3)nn2CCCN2CCOCC2)C1 |  | 1800 nM |
| CS(=O)(=O)N1CCc2c(c(-c3ccc(Cl)c(C#Cc4ccc(CN[C@@H](CO)c5ccccc5)cc4)c3)nn2CCCN2CCOCC2)C1 |  | 1700 nM |
| CS(=O)(=O)N1CCc2c(c(-c3ccc(Cl)c(C#Cc4ccc(CNCCc5ccccc5)cc4)c3)nn2CCCN2CCOCC2)C1 |  | 5700 nM |
| Cc1ccc(CNCc2ccc(C#Cc3cc(-c4nn(CCCN5CCOCC5)c5c4CN(S(C)(=O)=O)CC5)ccc3Cl)cc2)cc1 |  | 1100 nM |
| CS(=O)(=O)N1CCc2c(c(-c3ccc(Cl)c(C#Cc4ccc(CNCc5ccc(Cl)cc5)cc4)c3)nn2CCCN2CCOCC2)C1 | 140 nM | 1500 nM |
| CS(=O)(=O)N1CCc2c(c(-c3ccc(Cl)c(C#Cc4ccc(CNCc5ccccc5)cc4)c3)nn2CCCN2CCOCC2)C1 | 420 nM | 4200 nM |
| CN(Cc1ccccc1)Cc1ccc(C#Cc2cc(-c3nn(CCCN4CCOCC4)c4c3CN(S(C)(=O)=O)CC4)ccc2Cl)cc1 | 600 nM | > 10000 nM |
| COc1ccc(CNCc2ccc(C#Cc3cc(-c4nn(CCCN5CCOCC5)c5c4CN(S(C)(=O)=O)CC5)ccc3Cl)cc2)cc1 |  | 820 nM |
| COC(=O)[C@@H](NCc1ccc(C#Cc2cc(-c3nn(CCCN4CCOCC4)c4c3CN(S(C)(=O)=O)CC4)ccc2Cl)cc1)c1ccccc1 |  | > 10000 nM |
| COC(=O)[C@H](NCc1ccc(C#Cc2cc(-c3nn(CCCN4CCOCC4)c4c3CN(S(C)(=O)=O)CC4)ccc2Cl)cc1)c1ccccc1 | 100 nM | > 10000 nM |

Now from value to compound:

| IC50 [1] | IC50 [2] | Structure (SMILES) |
| --- | --- | --- |
| 380 nM | > 10000 nM | CS(=O)(=O)N1CCc2c(c(-c3ccc(Cl)c(C#Cc4ccc(Cl)cc4)c3)nn2CC(O)CN2CCNCC2)C1 (centres undefined) |
| 150 nM | > 10000 nM | CC(C)(C)OC(=O)N1CCN(CC(O)Cn2nc(-c3ccc(Cl)c(C#Cc4ccc(Cl)cc4)c3)c3c2CCN(S(C)(=O)=O)C3)CC1 (centres undefined) |
|  | > 10000 nM | CS(=O)(=O)N1CCc2c(c(-c3ccc(Cl)c(C#Cc4ccc(Cl)cc4)c3)nn2CC(O)CN2CCC(C(N)=O)CC2)C1 (centres undefined) |
|  | > 10000 nM | COC(=O)C1CCN(CC(O)Cn2nc(-c3ccc(Cl)c(C#Cc4ccc(Cl)cc4)c3)c3c2CCN(S(C)(=O)=O)C3)CC1 (centres undefined) |
| 140 nM | > 10000 nM | CS(=O)(=O)N1CCc2c(c(-c3ccc(Cl)c(C#Cc4ccc(Cl)cc4)c3)nn2CC(O)CN2CCOCC2)C1 (centres undefined) |
|  | > 10000 nM | CS(=O)(=O)N1CCc2c(c(-c3ccc(Cl)c(C#Cc4ccc(Cl)cc4)c3)nn2CC(O)CN2CCCCC2)C1 (centres undefined) |
| 490 nM | 10000 nM | CS(=O)(=O)N1CCc2c(c(-c3ccc(Cl)c(C#Cc4ccc(CN)cc4)c3)nn2CCCN2CCOCC2)C1 |
|  | > 10000 nM | CC(C)(C)OC(=O)N1CCC(C2CCN(C[C@H](O)Cn3nc(-c4ccc(Cl)c(C#Cc5ccc(Cl)cc5)c4)c4c3CCN(S(C)(=O)=O)C4)CC2)CC1 |
|  | 10000 nM | CC(=O)N1CCC(C2CCN(C[C@H](O)Cn3nc(-c4ccc(Cl)c(C#Cc5ccc(Cl)cc5)c4)c4c3CCN(S(C)(=O)=O)C4)CC2)CC1 |
|  | 200 nM | CS(=O)(=O)N1CCc2c(c(-c3ccc(Cl)c(C#Cc4ccc(Cl)cc4)c3)nn2C[C@@H](O)CN2CCC(C3CCNCC3)CC2)C1 |
|  | 720 nM | CN1CCC(C2CCN(C[C@H](O)Cn3nc(-c4ccc(Cl)c(C#Cc5ccc(Cl)cc5)c4)c4c3CCN(S(C)(=O)=O)C4)CC2)CC1 |
